Measurements: patent publication US10701939B2, “Aqueous suspension agrochemical composition” (KUMIAI CHEMICAL INDUSTRY CO., LTD., priority 2015, dated 2020)

System: wheat powdery mildew (Erysiphe graminis)
Experiment: Reference Example: efficacy reinforcement by adjuvant, control of wheat powdery mildew on potted wheat
Assay type: in vivo
Conditions: pyribencarb water-dispersible granules 30 g/ha, no adjuvant added (0 ppm); day 7 after inoculation
Protocol: Pyribencarb (40 parts), sodium lignin sulfonate (5 parts), polyoxyethylene alkyl aryl ether (1 part), calcium carbonate (54 parts) and water (10 parts) were mixed, kneaded, extruded, and granulated, and the resultant granules were dried in a fluidized bed dryer to obtain water-dispersible granules. Thus obtained water-dispersible granules of pyribencarb were adjusted so as to have a predetermined concentration, and the adjuvant shown in the following Table 2 was added to the diluted solution to a concentration of 100 ppm to prepare a spray solution. In addition, a spray solution containing an adjuvant at a concentration of 100 ppm without containing water-dispersible granules of pyribencarb were separately prepared. Ten wheat seeds (variety: Norin No. 61) were sowed in a plastic cup having a diameter of 5.5 cm, and after grown for 7 days in a greenhouse, 25 ml/m^2 (30 g of pyribencarb per 1 ha) was sprayed onto the wheat at 1.5 to 2 leaf stage. After air-drying, conidia of wheat powdery mildew (Erysiphe graminis) were sprayed and inoculated, and the plant was placed in a greenhouse. On day 7 after inoculation, the disease onset area of the first leaves in the pot in the spray solution-treated region and the untreated region were indexed and investigated according to the criteria in Table 1 below. […]

COC(=O)NCc1cc(/C(C)=N/OCc2cccc(C)n2)ccc1Cl [pyribencarb, methyl={2-chloro-5-[(E)-1-(6-methyl-2-pyridylmethoxyimino)ethyl]benzyl}carbamate]
Control effect on wheat powdery mildew (control value): 33.2%
